According to paper PMC7728077, “Double-Headed Cationic Lipopeptides: An Emerging Class of Antimicrobials” (International Journal of Molecular Sciences, 2020):

Conditions: NMR DOSY, 700 MHz
Procedure: NMR spectra were recorded on a Bruker AVANCE III 700 MHz spectrometer. The size of lipopeptide assemblies was determined by an NMR method measuring the self-diffusion coefficient (DOSY experiments). The lipopeptide self-diffusion coefficient, D, was measured by attenuation of the spin-echo signal intensity (I) as a function of gradient amplitude (g), expressed by the Stejskal–Tanner formula, I = I0exp[−Dg^2γ^2 δ^2(∆ − δ/3)] [39], where I0 is the echo intensity in the absence of the field gradient pulse, γ = 2.675 × 10^8 rad T^−1 s^−1 is the gyromagnetic ratio of the ^1H nucleus, δ is the duration of the field gradient pulse, and ∆ is the time period between two field gradient pulses. […] The spectra were processed and analyzed using Topspin 3.2 (Bruker, Billerica, MA, USA).

In the case of `CCCCCCCCCCCCCCCC(=O)NCCC[C@H](NC(=O)[C@@H](N)CCCCN)C(=O)N[C@@H](CCCCN)C(N)=O` [K(OC16)K-NH2], the “first breakpoint of self-diffusion coefficient vs. concentration (premicellar state)” value is reported as “around 6 mM” and the “second breakpoint of self-diffusion coefficient vs. concentration (micellar state)” value is reported as “around 9 mM”.
